Experiments:
Assay type in all cases: cell-based
TASK-3 = target: T1, TASK-3 (Homo sapiens, UniProt Q9NPC2); assay: two-electrode voltage clamp in Xenopus laevis oocytes, […] ranolazine
T1 construct: gene KCNK9

TALK-2 = target: T2, TALK-2 (Homo sapiens, UniProt Q96T54); assay: as above
T2 construct: gene KCNK17
T2 sequence (Q96T54 1-332): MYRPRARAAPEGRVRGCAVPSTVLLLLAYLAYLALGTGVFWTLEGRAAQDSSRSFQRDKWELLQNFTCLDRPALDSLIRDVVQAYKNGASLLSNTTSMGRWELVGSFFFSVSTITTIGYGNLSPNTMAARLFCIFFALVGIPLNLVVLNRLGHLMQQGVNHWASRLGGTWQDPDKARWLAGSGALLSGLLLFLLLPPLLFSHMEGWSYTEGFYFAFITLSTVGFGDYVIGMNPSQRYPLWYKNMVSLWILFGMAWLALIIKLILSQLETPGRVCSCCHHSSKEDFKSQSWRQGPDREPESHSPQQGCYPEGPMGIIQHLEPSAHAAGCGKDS

TASK-2 = target: T3, TASK-2 (Homo sapiens, UniProt O95279); assay: as above
T3 construct: gene KCNK5
T3 sequence (O95279 1-499): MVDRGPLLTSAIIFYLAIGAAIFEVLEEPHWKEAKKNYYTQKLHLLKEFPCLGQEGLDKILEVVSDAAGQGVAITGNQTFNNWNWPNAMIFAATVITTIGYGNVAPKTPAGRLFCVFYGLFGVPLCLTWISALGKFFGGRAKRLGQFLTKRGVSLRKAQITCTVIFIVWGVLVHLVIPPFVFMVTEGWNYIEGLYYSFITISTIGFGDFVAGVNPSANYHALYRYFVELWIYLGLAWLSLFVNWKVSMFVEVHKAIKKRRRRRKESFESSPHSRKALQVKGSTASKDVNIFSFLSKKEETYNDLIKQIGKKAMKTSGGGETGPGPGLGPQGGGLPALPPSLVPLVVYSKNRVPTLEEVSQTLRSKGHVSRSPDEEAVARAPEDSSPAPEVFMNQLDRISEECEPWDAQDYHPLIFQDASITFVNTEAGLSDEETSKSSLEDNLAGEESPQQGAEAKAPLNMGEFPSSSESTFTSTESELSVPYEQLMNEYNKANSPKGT

TALK-1 = target: T4, TALK-1 (Homo sapiens, UniProt Q96T55); assay: as above
T4 construct: gene KCNK16
T4 sequence (Q96T55 1-309): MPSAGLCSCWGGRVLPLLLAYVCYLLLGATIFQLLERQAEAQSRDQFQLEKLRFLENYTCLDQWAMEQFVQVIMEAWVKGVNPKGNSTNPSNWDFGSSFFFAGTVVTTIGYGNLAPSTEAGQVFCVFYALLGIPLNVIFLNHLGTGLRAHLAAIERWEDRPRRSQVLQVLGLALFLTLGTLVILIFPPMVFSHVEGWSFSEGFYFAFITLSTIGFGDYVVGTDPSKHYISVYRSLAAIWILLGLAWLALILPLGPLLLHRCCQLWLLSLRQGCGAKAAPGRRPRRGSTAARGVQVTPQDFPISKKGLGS

TASK-1 = target: T5, TASK-1 (Homo sapiens, UniProt O14649); assay: whole-cell patch clamp in CHO cells; two-electrode voltage clamp in Xenopus laevis oocytes; pore mutagenesis
T5 construct: gene KCNK3
T5 sequence (O14649 whole entry): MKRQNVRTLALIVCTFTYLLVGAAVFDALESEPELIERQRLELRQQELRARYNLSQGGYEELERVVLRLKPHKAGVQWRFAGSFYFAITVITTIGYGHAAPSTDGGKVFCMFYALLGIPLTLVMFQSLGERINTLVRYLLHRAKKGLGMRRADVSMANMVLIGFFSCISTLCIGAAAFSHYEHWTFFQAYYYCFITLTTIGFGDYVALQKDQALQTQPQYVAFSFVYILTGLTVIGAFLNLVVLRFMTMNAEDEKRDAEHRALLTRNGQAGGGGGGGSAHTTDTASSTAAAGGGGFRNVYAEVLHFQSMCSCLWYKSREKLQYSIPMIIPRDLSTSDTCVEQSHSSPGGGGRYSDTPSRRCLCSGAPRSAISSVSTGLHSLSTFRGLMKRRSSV

T1 sequence (Q9NPC2 whole entry): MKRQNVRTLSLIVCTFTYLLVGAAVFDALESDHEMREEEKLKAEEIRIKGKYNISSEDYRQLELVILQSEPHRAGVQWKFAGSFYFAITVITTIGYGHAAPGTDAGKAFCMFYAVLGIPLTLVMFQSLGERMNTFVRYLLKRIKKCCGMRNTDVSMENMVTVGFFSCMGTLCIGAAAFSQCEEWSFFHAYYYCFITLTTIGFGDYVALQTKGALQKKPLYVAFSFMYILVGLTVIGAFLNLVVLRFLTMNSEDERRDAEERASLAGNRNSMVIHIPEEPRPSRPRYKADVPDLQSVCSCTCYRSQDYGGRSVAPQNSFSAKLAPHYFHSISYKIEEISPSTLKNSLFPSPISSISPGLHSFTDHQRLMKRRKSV

COc1ccccc1OCC(O)CN1CCN(CC(=O)Nc2c(C)cccc2C)CC1 (centres unmarked) [ranolazine]
inhibition at 300 µM (TASK-3): 28.3%
inhibition at 300 µM (TALK-2): 34.9%
inhibition at 300 µM (TASK-2): 30%
inhibition at 300 µM (TALK-1): 23%
IC50 (TASK-1): 30.6 µM

Reference: paper PMC6988797, “Antiarrhythmic Properties of Ranolazine: Inhibition of Atrial Fibrillation Associated TASK-1 Potassium Channels” (Frontiers in Pharmacology, 2019)
